# Measured values taken from US20110263520A1, “COMPOSITION FOR USE IN CONTROLLING HARMFUL ORGANISMS THAT CONTAINS 16-KETO ASPERGILLIMIDE” (priority 2008, published 2011).
# Read-outs that look alike come from different tables or passages of the source.
# Key:
# Nephotettix cincticeps [1] = experiment: Foliage application test, Nephotettix cincticeps (Reference Test Example 8); format: in vivo
# Description: (§1) A test solution adjusted to a predetermined concentration (10% aqueous acetone solution) was applied to rice seedlings in pot culture. […] The test was duplicated.
# The death rate against larvae at the second instar born of Nephotettix cincticeps was calculated in the same manner as in Reference Test Example 7.
# [2] = tested on: Trigonotylus caelestialium; experiment: Root dipping application test, Trigonotylus caelestialium (Reference Test Example 2); format: in vivo
# From the text: (§2) A test solution adjusted to a predetermined concentration (10% aqueous acetone solution) was applied to the root of wheat seedlings in water culture. […] The test was duplicated.
# Nephotettix cincticeps [3] = experiment: Soil drenching application test, Nephotettix cincticeps (Reference Test Example 5); format: in vivo
# Description: (§3) A test solution adjusted to a predetermined concentration (10% aqueous acetone solution) was applied to rice seedlings in a pot by soil drenching. The rice seedlings were allowed to stand for 3 days. […] The test was duplicated.
# The death rate against second instar larvae was calculated in the same manner as in Reference Test Example 3.
# [4] = tested on: Haemaphysalis longicornis; experiment: Tickicidal effect against Haemaphysalis longicornis on body surface of mouse (Test Example 6); format: in vivo; conditions: for Death rate (%): mouse body surface, 3 days after release
# Description: Skin hair on the back of mouse (ICR, male, 5 week olds) was clipped in a diameter of about 2 cm, and a 15-mL polystyrene conical tube cut to have a height of about 1.5 cm was bonded to the body surface of the mouse with an instant adhesive. Test solutions (20 μl) adjusted with ethanol were dropped on the body surface of mice within the bonded tube. After thorough drying, larvae (10 or more heads) were released within the tube, and the tube was lidded. […] The test was hexaplicated.
# (§4) Colby's formula: Theoretical value (%)=100−(A×B)/100
# [5] = tested on: Haemaphysalis longicornis; experiment: Tickcidal effect against Haemaphysalis longicornis, dry film in glass vial (Test Example 5); format: in vivo; conditions: Haemaphysalis longicornis, 48 h, 2 days after release; for pest or weed control at 1 ppm: 16-keto aspergillimide 1 ppm alone; for pest or weed control at 2 ppm: 16-keto aspergillimide 2 ppm alone
# Description: Acetone solutions (30 μl) adjusted to predetermined concentrations were placed in 4 mL-volume glass vials. The vials were placed on a shaker, and a dry film of the compound was prepared on the inner wall of the vials. The vials were dried for 24 hr or more. Larvae (10 or more heads) were released in the vials, and the vials were lidded. The vials were then left to stand in a humidistat chamber (25° C., humidity 85%, fully darkened conditions). […] The test was duplicated.
# as §4
# Laodelphax striatellus [6] = experiment: Root dipping application test, Laodelphax striatellus (Reference Test Example 1); format: in vivo
# From the text: as §2
# As is apparent from Table 15, the systemic insecticidal activity of 16-keto aspergillimide was much higher than that of a control compound, Asperparaline A.
# The 16-keto aspergillimide and Asperparaline A used in this test were obtained according to methods described in The Journal of Antibiotics, 1997, 50(10), 840-846. This is true of the following test examples.
# Sogatella furcifera [7] = experiment: Soil drenching application test, Sogatella furcifera (Reference Test Example 4); format: in vivo
# Description: as §3
# The death rate against larvae at the second instar born of Sogatella furcifera was calculated in the same manner as in Reference Test Example 3.
# [8] = tested on: Frankliniella occidentalis; experiment: Soil drenching application test, Frankliniella occidentalis (Reference Test Example 6); format: in vivo
# From the text: A test solution adjusted to a predetermined concentration (10% aqueous acetone solution) was applied to cucumber seedlings in pot couture by soil drenching. The cucumber seedlings were allowed to stand for 4 days. A leaf disk having a diameter of 2.8 cm was then cut out from cucumber seedlings, and first instar larvae were released. […] The test was duplicated.
# Laodelphax striatellus [9] = experiment: Foliage application test for Laodelphax striatellus (Test Example 2); format: in vivo; conditions: 16-keto aspergillimide 2.5 ppm alone
# From the text: as §4
# Aphis gossypii = experiment: Foliage application test for Aphis gossypii, cucumber leaf disk (Test Example 3); format: in vivo; conditions: 16-keto aspergillimide 1.25 ppm alone
# From the text: Test solutions adjusted to a predetermined concentration (50% aqueous acetone solution; 0.05% Tween 20 added) were applied to a leaf disk having a diameter of 2.0 cm cut out from a cucumber grown in a pot.
# as §4
# Laodelphax striatellus [10] = experiment: Laodelphax striatellus soil drenching application test (Test Example 1); conditions: 16-keto aspergillimide 0.2 mg/seedling alone
# Description: Test solutions adjusted to a predetermined concentration (10% aqueous acetone solution) were applied to rice seedling in a pot by soil drenching. The rice seedling was allowed to stand for 3 days. Second instar larvae were released and was then allowed to stand in a humidistat chamber (light period 16 hr−dark period 8 hr) (25° C.).
# Death rate (%)={number of dead larvae/(number of survived larvae+number of dead larvae)}×100
# wherein A: 100−(death rate when application was performed only with 16-keto aspergillimide); and
# Sogatella furcifera [11] = experiment: Foliage application test, Sogatella furcifera (Reference Test Example 7); format: in vivo
# From the text: as §1
# Nilaparvata lugens = experiment: Soil drenching application test, Nilaparvata lugens (Reference Test Example 3); format: in vivo
# From the text: as §3
# [12] = tested on: Frankliniella occidentalis; experiment: Foliage application test, Frankliniella occidentalis, haricot leaf disk (Reference Test Example 9); format: in vivo
# From the text: A leaf disk having a diameter of 2.8 cm was cut out from haricot in pot culture, and a test solution adjusted to a predetermined concentration (50% aqueous acetone solution, with 0.05% Tween 20 added) was applied thereto. The leaf disk was air-air dried, and first instar larvae were released.
# [13] = tested on: Nilaparvata lugens which is low-sensitive to imidacloprid; experiment: Foliage application test for Nilaparvata lugens, imidacloprid low-sensitive strain (Test Example 4); format: in vivo; conditions: for Death rate (%): low-sensitive strain, 6 days after release
# Description: (§5) Test solutions adjusted to a predetermined concentration (50% aqueous acetone solution) applied to rice seedlings in a pot for foliage application. […] The test was duplicated.
# (§6) For comparison, a test was carried out in the same manner as described above, except that a Nilaparvata lugens strain which is highly sensitive to imidacloprid was used.
# (§7) Regarding the origin of the test insect pests, Nilaparvata lugens which is low-sensitive to imidacloprid was an insect which had been collected outdoors in Kumamoto Prefecture, 2007, and Nilaparvata lugens which is sensitive to imidacloprid was an insect which had been collected in Kagoshima Prefecture and was then subjected to indoor successive raising.
# [14] = tested on: Nilaparvata lugens which is sensitive to imidacloprid; experiment: Foliage application test for Nilaparvata lugens, imidacloprid-sensitive strain (Test Example 4, comparison); format: in vivo; conditions: 6 days after release
# Description: as §5, §6, §7
# [15] = tested on: larvae at the third instar born of Haemonchus contortus; conditions: The Journal of Antibiotics, 1997, 50(10), 840-846; cited from earlier work
# [16] = 100 ppm, rice seedlings, 3 days after release
# [17] = 0.5 μg/seedling, wheat seedlings, 3 days after release
# [18] = 1.0 mg/seedling, rice seedlings, 3 days after release
# [19] = 16-keto aspergillimide 1 μg/2 cm^2 alone
# [20] = read-out: Death rate (%), Table 9
# [21] = read-out: Death rate (%), Table 10
structure (smiles),measurement,setting,value
"C[C@H]1CC(=O)N2C[C@]34C[C@]5(CC(=O)N(C)C5=O)C(C)(C)[C@@H]3C[C@]12C(=O)N4C [16-Keto aspergillimide, 16-keto aspergillimide]",insecticidal activity in foliage application,Nephotettix cincticeps [1],exhibited insecticidal activity
same,Death rate (%),Nephotettix cincticeps [1]; [16],100%
same,systemic insecticidal activity,[2],exhibited systemic insecticidal activity
same,Death rate (%),[2]; [17],100%
same,systemic insecticidal activity,Nephotettix cincticeps [3],exhibited systemic insecticidal activity
same,Death rate (%),Nephotettix cincticeps [3]; [18],100%
same,Theoretical value (%) by Colby's formula,[4]; [19],22%
same,Death rate (%),[4]; [19],22%
same,Death rate (%),[4]; 16-keto aspergillimide 2 μg/2 cm^2 alone,57%
same,Theoretical value (%) by Colby's formula,[4]; 16-keto aspergillimide alone,57%
same,pest or weed control at 1 ppm,[5]; [20],10%
same,pest or weed control at 2 ppm,[5]; [20],17%
same,pest or weed control at 1 ppm,[5]; [21],14%
same,pest or weed control at 2 ppm,[5]; [21],20%
same,Death rate (%) for each amount of test chemical compound,Laodelphax striatellus [6]; [17],100%
same,systemic insecticidal activity compared with control compound Asperparaline A,Laodelphax striatellus [6]; Table 15,much higher
same,systemic insecticidal activity,Sogatella furcifera [7],exhibited systemic insecticidal activity
same,Death rate (%),Sogatella furcifera [7]; [18],100%
same,systemic insecticidal activity,[8],exhibited systemic insecticidal activity
same,Death rate (%),"[8]; 2.0 mg/seedling, cucumber seedlings, 6 days after release",100%
same,Theoretical value (%) calculated by the Colby's formula,Laodelphax striatellus [9],65%
same,Death rate (%),"Laodelphax striatellus [9]; foliage application, 3 days after release",65%
same,Theoretical value calculated by the Colby's formula (%),Aphis gossypii,26%
same,Death rate (%),"Aphis gossypii; leaf disk, 3 days after release",26%
same,Theoretical value (%) calculated by the Colby's formula,Laodelphax striatellus [10],30%
same,Death rate (%),"Laodelphax striatellus [10]; soil drenching, 3 days after release",30%
same,insecticidal activity by foliage application,Sogatella furcifera [11],exhibited insecticidal activity
same,Death rate (%),Sogatella furcifera [11]; [16],100%
same,systemic insecticidal activity,Nilaparvata lugens,exhibited systemic insecticidal activity
same,Death rate (%),Nilaparvata lugens; [18],100%
same,Death rate (%),"[12]; 100 ppm, haricot leaf disk, 3 days after release",100%
same,insecticidal activity by foliage application,[12]; foliage application,exhibited insecticidal activity
same,death rate for the low-sensitive strain compared with the high-sensitive strain,[13]; Table 7 against Table 8,the same
same,Death rate (%),[13]; treatment concentration 5 ppm,60%
same,Death rate (%),[13]; treatment concentration 20 ppm,95%
same,Death rate (%),[13]; treatment concentration 50 ppm,100%
same,Death rate (%),[14]; treatment concentration 5 ppm,95%
same,Death rate (%),[14]; treatment concentration 20 ppm,100%
same,Death rate (%),[14]; treatment concentration 50 ppm,100%
same,anthelmintic activity,[15],anthelmintically active
